According to PubChem BioAssay (NCI):
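Exposure lasted 48 hours, with cells grown in 96-well plates and compounds tested at five concentrations. TGI marks complete inhibition of growth.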

Legend:
Assay in all cases: inhibition of tumour cell growth, NCI panel, 48 h
EKVX NSCLC = tested on: EKVX NSCLC
SNB-19 CNS = tested on: SNB-19 CNS
OVCAR-8 ovarian = tested on: OVCAR-8 ovarian
SK-MEL-2 melanoma = tested on: SK-MEL-2 melanoma
HOP-62 NSCLC = tested on: HOP-62 NSCLC
SF-295 CNS = tested on: SF-295 CNS
RXF 393 renal = tested on: RXF 393 renal
OVCAR-4 ovarian = tested on: OVCAR-4 ovarian
COLO 205 colon = tested on: COLO 205 colon
SW-620 colon = tested on: SW-620 colon
ACHN renal = tested on: ACHN renal
MDA-N = tested on: MDA-N
M14 melanoma = tested on: M14 melanoma
NCI-H23 lung = tested on: NCI-H23 lung
MALME-3M melanoma = tested on: MALME-3M melanoma
NCI-H460 lung = tested on: NCI-H460 lung
SF-268 CNS = tested on: SF-268 CNS
MDA-MB-435 = tested on: MDA-MB-435
SF-539 CNS = tested on: SF-539 CNS
MOLT-4 leukemia = tested on: MOLT-4 leukemia
SK-MEL-28 melanoma = tested on: SK-MEL-28 melanoma
UACC-62 melanoma = tested on: UACC-62 melanoma
HCT-116 colon = tested on: HCT-116 colon
DU-145 prostate = tested on: DU-145 prostate
HS 578T breast = tested on: HS 578T breast
CAKI-1 renal = tested on: CAKI-1 renal
K-562 leukemia = tested on: K-562 leukemia
MCF7 breast = tested on: MCF7 breast
NCI/ADR-RES ovarian = tested on: NCI/ADR-RES ovarian
HCT-15 colon = tested on: HCT-15 colon
UACC-257 melanoma = tested on: UACC-257 melanoma
U251 CNS = tested on: U251 CNS
PC-3 prostate = tested on: PC-3 prostate
SK-MEL-5 melanoma = tested on: SK-MEL-5 melanoma
786-0 renal = tested on: 786-0 renal
TK-10 renal = tested on: TK-10 renal
KM12 colon = tested on: KM12 colon
BT-549 breast = tested on: BT-549 breast
HL-60(TB) leukemia = tested on: HL-60(TB) leukemia
SNB-75 CNS = tested on: SNB-75 CNS
SR leukemia = tested on: SR leukemia
SK-OV-3 ovarian = tested on: SK-OV-3 ovarian
NCI-H226 lung = tested on: NCI-H226 lung
UO-31 renal = tested on: UO-31 renal
A549 NSCLC = tested on: A549 NSCLC
T-47D breast = tested on: T-47D breast
A498 renal = tested on: A498 renal
CCRF-CEM leukemia = tested on: CCRF-CEM leukemia
RPMI-8226 leukemia = tested on: RPMI-8226 leukemia
LOX IMVI melanoma = tested on: LOX IMVI melanoma
OVCAR-3 ovarian = tested on: OVCAR-3 ovarian
SN12C renal = tested on: SN12C renal
MDA-MB-231 breast = tested on: MDA-MB-231 breast
HT29 colon = tested on: HT29 colon
OVCAR-5 ovarian = tested on: OVCAR-5 ovarian
IGROV1 ovarian = tested on: IGROV1 ovarian

CC(=O)OC1CCC2(C)C(CCC3C4CC=C(C5(C)OCCO5)C4(C)CCC32)C1 (stereo unspecified)
TGI (EKVX NSCLC): 44.1 µM | TGI (SNB-19 CNS): > 100 µM | TGI (OVCAR-8 ovarian): 48.8 µM | TGI (SK-MEL-2 melanoma): 37.4 µM | TGI (HOP-62 NSCLC): 44.1 µM | TGI (SF-295 CNS): 57.2 µM | TGI (RXF 393 renal): 40.3 µM | TGI (OVCAR-4 ovarian): 61 µM | TGI (COLO 205 colon): 32.9 µM | TGI (SW-620 colon): 45.6 µM | TGI (ACHN renal): > 100 µM | TGI (MDA-N): 44 µM | TGI (M14 melanoma): 52.8 µM | TGI (NCI-H23 lung): 66.6 µM | TGI (MALME-3M melanoma): 53.4 µM | TGI (NCI-H460 lung): 47.8 µM | TGI (SF-268 CNS): > 100 µM | TGI (MDA-MB-435): 47.9 µM | TGI (SF-539 CNS): 42.7 µM | TGI (MOLT-4 leukemia): 65.5 µM | TGI (SK-MEL-28 melanoma): 43 µM | TGI (UACC-62 melanoma): 53.1 µM | TGI (HCT-116 colon): 45.3 µM | TGI (DU-145 prostate): > 100 µM | TGI (HS 578T breast): 60.1 µM | TGI (CAKI-1 renal): > 100 µM | TGI (K-562 leukemia): > 100 µM | TGI (MCF7 breast): 53.9 µM | TGI (NCI/ADR-RES ovarian): 46 µM | TGI (HCT-15 colon): 80.6 µM | TGI (UACC-257 melanoma): 40.2 µM | TGI (U251 CNS): 39.4 µM | TGI (PC-3 prostate): 54.2 µM | TGI (SK-MEL-5 melanoma): 28.9 µM | TGI (786-0 renal): 77.4 µM | TGI (TK-10 renal): > 100 µM | TGI (KM12 colon): 67.4 µM | TGI (BT-549 breast): 45.8 µM | TGI (HL-60(TB) leukemia): 48.8 µM | TGI (SNB-75 CNS): 73.7 µM | TGI (SR leukemia): 54.2 µM | TGI (SK-OV-3 ovarian): > 100 µM | TGI (NCI-H226 lung): 66.8 µM | TGI (UO-31 renal): 62 µM | TGI (A549 NSCLC): > 100 µM | TGI (T-47D breast): > 100 µM | TGI (A498 renal): 61.8 µM | TGI (CCRF-CEM leukemia): 38.4 µM | TGI (RPMI-8226 leukemia): 34.1 µM | TGI (LOX IMVI melanoma): 32.8 µM | TGI (OVCAR-3 ovarian): 44 µM | TGI (SN12C renal): 44.4 µM | TGI (MDA-MB-231 breast): > 100 µM | TGI (HT29 colon): 38.3 µM | TGI (OVCAR-5 ovarian): 44.7 µM | TGI (IGROV1 ovarian): 70.4 µM
